According to article PMC13330650 (Matrix biology : journal of the International Society for …, 2025):
Positions count from the first letter of the chain named. “Also recorded” adds a separate entry of the source. Where two headings read alike, the source gives them in different places.

Experiments:
UGDH WT = target: T1, UGDH WT (Homo sapiens, UniProt O60701); experiment: steady state kinetics of purified recombinant UGDH WT; format: biochemical; settings: cofactor NAD+ varied
T1 construct: six-histidine; made in house; host or cells: E. coli BL21(DE3)
T1 sequence (O60701 1-494): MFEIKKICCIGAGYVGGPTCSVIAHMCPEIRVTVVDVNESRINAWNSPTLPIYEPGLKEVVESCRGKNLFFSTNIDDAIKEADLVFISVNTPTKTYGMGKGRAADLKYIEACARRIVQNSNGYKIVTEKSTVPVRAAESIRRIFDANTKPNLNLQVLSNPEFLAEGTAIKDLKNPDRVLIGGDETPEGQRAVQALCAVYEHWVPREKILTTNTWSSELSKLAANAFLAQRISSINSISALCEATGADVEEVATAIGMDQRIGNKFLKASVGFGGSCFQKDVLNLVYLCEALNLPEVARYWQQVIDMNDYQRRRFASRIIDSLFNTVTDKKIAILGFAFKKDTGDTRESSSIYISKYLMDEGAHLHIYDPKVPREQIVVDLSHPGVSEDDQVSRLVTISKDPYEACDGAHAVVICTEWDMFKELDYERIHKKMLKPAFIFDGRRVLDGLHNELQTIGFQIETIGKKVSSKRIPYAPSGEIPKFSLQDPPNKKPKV
Method: (§1) Purified S316 mutants were compared to the UGDH WT enzyme using the following approaches as previously described. Enzymatic activity was evaluated by steady state kinetics in the presence and absence of the endogenous inhibitor UDP-Xylose to compare Michaelis constants and IC50 values. Intrinsic stability was assessed by thermal denaturation and quaternary structure was determined by size exclusion chromatography. Binding of UDP-Xylose to recombinant UGDH and mutants was measured by isothermal titration calorimetry using the MicroCal PEAQ-ITC (Malvern Panalytical). […] Binding heats were corrected for the heat of dilution and analyzed using the MicroCal PEAQ-ITC Analysis Software, employing a single-site binding model to determine Kd values.

UGDH S316A = target: T2, UGDH S316A (Homo sapiens, UniProt O60701, S316A); experiment: steady state kinetics of purified recombinant UGDH S316A; format: biochemical; settings: cofactor NAD+ varied
T2 construct: six-histidine; made in house; host or cells: E. coli BL21(DE3)
T2 sequence (O60701 1-494 S316A): T1 sequence (O60701 1-494) with S316A
Method: as §1

UGDH S316D = target: T3, UGDH S316D (Homo sapiens, UniProt O60701, S316D); experiment: steady state kinetics of purified recombinant UGDH S316D; format: biochemical; settings: cofactor NAD+ varied
T3 construct: six-histidine; made in house; host or cells: E. coli BL21(DE3)
T3 sequence (O60701 1-494 S316D): T1 sequence (O60701 1-494) with S316D
Method: as §1

[1] = tested on: O-glycans in LNCaP UGDH WT (OE) and S316D cells; experiment: metabolic O-glycan labeling (Ac4GalNaz click chemistry) with 4-MU; format: cell-based, human; settings: 10 μM 4-MU, 72 hours
[2] = tested on: LNCaP cell lines (VC, UGDH WT (OE), UGDH S316D, UGDH S316A); experiment: proliferation assay (resazurin conversion to resorufin); format: cell-based, human; settings: for cell number / proliferation, single kinase inhibitor: all lines, 3-day, inhibitor 20 μM, replete media
Method: (§2) Cell treatments were conducted as follows, except where described. To stimulate phosphorylation of UGDH at S316 for Western blot analysis, cells were cultured in replete medium until they reached 70 % confluence. Seventy-two hours prior to harvest, medium was replaced with phenol-red-free media containing 5 % CS-FBS to reduce androgen signaling. Twenty-four hours prior to harvest, medium was replaced with phenol-red-free media containing 10 % CS-FBS plus 10 nM DHT or vehicle control. EGF (20ng/mL) or vehicle control were added to cell media twenty minutes prior to harvest. For assessment of UGDH pS316 in these conditions with kinase inhibition, assays were repeated with kinase inhibitors added alongside EGF, DHT, and controls. Kinase inhibitor treatment concentrations were optimized based on published efficacy ranges and the following were used for all assays: BIX02565 (20 μM), PF4708671 (20 μM), GSK650394 (40 μM). Proliferation assays were performed with 10 μM enzalutamide (enz) added as described below, and 3D assays were performed with 1 μM enz added during seeding as described. For click chemistry quantification of glycans in cells treated with 4-MU, 10 μM was added to cell medium during the addition of the click labeling reagents.
For basal growth, 5 × 10^4 cells of each line were cultured in 24-well plates in standard steroid-replete media. Cell proliferation was measured daily for three days in replicate plates incubated for 2 h with media containing 10 % resazurin, after which fluorescence of the reduced product, resorufin, was measured (560Ex/590Em) in a microplate reader. To assess the impacts of kinase inhibition on cell growth, assays were repeated in the presence of inhibitors individually and in combination. For androgen-mediated cell growth with kinase inhibition, cells were cultured in 24-well plates in standard steroid-replete media. After 12 h, media were first removed and replaced with media containing 5 % CS-FBS (androgen-depleted conditions) for 48 h, and then media were removed and replaced with media containing 10 % CS-FBS plus 10 nM DHT and kinase inhibitors for another 48 h. Cell proliferation was measured daily as described above beginning when cells were switched to androgen free conditions. For enz treatments, cells were cultured in 24-well plates in standard steroid-replete media. After 12 h, media were replaced with replete media containing vehicle or 10 μM enz and vehicle or kinase inhibitors. For assays with kinase inhibition, cell proliferation was measured daily as described above beginning when cells were switched to the respective treatment condition. Cell numbers were extrapolated from fluorescence values by comparison to a standard curve for each respective cell line, and cell count at the end of the experiment was normalized to cell count on day zero directly following media replacement. All data were plotted for four technical replicates of experiments that were repeated three times. Statistical significance was assessed by one-way ANOVA followed by Tukey’s post hoc test for multiple comparisons.

[3] = tested on: LNCaP cell lines (VC, UGDH WT (OE), UGDH S316D, UGDH S316A); experiment: tumoroid (anchorage independent spheroid) growth assay; format: cell-based, human
[4] = tested on: UGDH pS316 in LNCaP cells; experiment: western blot of UGDH pS316 (anti-p-Akt substrate) in LNCaP whole cell lysates; format: cell-based, human; settings: for EGF-stimulated p-UGDH band intensity: EGF 20ng/mL, inhibitor 20 μM
Text: To validate the phosphorylation of UGDH by RSK2, S6K1, and SGK1 in a cellular context, we used a western analysis that capitalized on the general reactivity of an antibody generated against the phosphorylated AGC kinase motif (RxRxxpS/T) for targets of Akt, which is also a member of this kinase family. To validate the assay, we first compared phosphorylation of S316 in the in vitro kinase assay using purified recombinant UGDH. […] We further validated using serum starved LNCaP cells treated with EGF to stimulate activity of RSK2 [26] and S6K1 [27], or DHT to activate SGK1 [28], prior to lysate harvest.
as §2
Media were aspirated from cells, and a portion kept for analysis of HA content. Cells were washed with 2 mL cold 1x PBS, scraped into 1 mL of cold 1xPBS, pelleted by centrifugation, and lysed with 1x RIPA buffer supplemented with 1x protease inhibitor cocktail. For analysis of phosphoprotein expression, 1x phosphatase inhibitor was added to the lysis buffer. Bradford assay was performed to quantify protein content of cell lysates. Blots were imaged and quantified through fluorescence emission using the Odyssey Infrared Imaging System (LI-COR Biosciences, Lincoln, NE, USA). β-tubulin or GAPDH were used to normalize protein expression. Each analysis was plotted for three technical replicates of a representative experiment that was repeated at least three times. Statistical significance was assessed by one-way ANOVA followed by Tukey’s post hoc test for multiple comparisons.

NC(=O)c1ccc[n+]([C@@H]2O[C@H](COP(=O)([O-])OP(=O)(O)OC[C@H]3O[C@@H](n4cnc5c(N)ncnc54)[C@H](O)[C@@H]3O)[C@@H](O)[C@H]2O)c1 [NAD+]
Km (UGDH WT): 530 ± 90 µM | NAD+ Vmax (UGDH WT): 710±40 nmol/min/mg of protein | NAD+ Vmax (UGDH WT; listed as NAD^+): 710 nmol/min/mg of protein | Km (UGDH S316A): 380 ± 60 µM | NAD+ Vmax (UGDH S316A): 490±20 nmol/min/mg of protein | NAD+ Vmax (UGDH S316A; listed as NAD^+): 490 nmol/min/mg of protein | Km (UGDH S316D): 330 ± 70 µM | NAD+ Vmax (UGDH S316D): 230±20 nmol/min/mg of protein | NAD+ Vmax (UGDH S316D; listed as NAD^+): 230 nmol/min/mg of protein

Cc1cc(=O)oc2cc(O)ccc12 [4-MU, 4-methylumbelliferone]
O-glycan levels with 4-MU ([1]; UGDH S316D cell lines): this reversal was not observed | O-glycan levels with 4-MU ([1]; UGDH WT (OE) cells): significant reductions in O-linked glycans; also recorded: reversed the enhancement of O-glycan levels

CNC(=O)c1ccc(N2C(=S)N(c3ccc(C#N)c(C(F)(F)F)c3)C(=O)C2(C)C)cc1F [enz, enzalutamide]
growth in the presence of enz and S6K1 inhibitor ([2]; UGDH S316D lines, 10 μM enz + PF4708671 20 μM): < 30 % of initial cell count | proliferation in the presence of enz alone ([2]; UGDH WT and S316D cells, 10 μM enz): minimal detectable effect on proliferation; also recorded: continued to proliferate | growth reduction, combined targeting of RSK2 with enz ([2]; UGDH WT and S316D, 10 μM enz + BIX02565 20 μM): ≈ 20% | growth, combined targeting of RSK2 with enz ([2]; VC and UGDH S316A lines, 10 μM enz + BIX02565 20 μM): eliminated growth | growth suppression by enz alone ([2]; VC and UGDH S316A-expressing cells, 10 μM enz): ≈ 40% | enz suppression of large spheroid growth ([3]; UGDH WT (OE) and S316D expressing cells, 1 μM enz): sensitive

C[C@@H]1CCNC(=O)c2cc3ccc(C(=O)Nc4nc5ccccc5n4CCCN(C)C)cc3n21 [BIX02565]
EGF-stimulated p-UGDH band intensity ([4]; LNCaP cells): significantly reduced | cell death ([2]; VC and UGDH S316A cells, BIX02565 20 μM): induced significant cell death | cell number / proliferation, single kinase inhibitor [2]: reduced cell number in all lines | spheroid growth diminished ([3]; UGDH WT (OE) and S316D expressing cells, RSK2 inhibitor BIX02565 20 μM): ≈ 80% | medium and large spheroid growth ([3]; VC and UGDH S316A cell lines, RSK2 inhibitor BIX02565 20 μM): almost completely suppressed

O=C(O)c1ccc(-c2c[nH]c3ncc(-c4ccccc4)cc23)cc1C1CCCC1 [GSK650394]
DHT-stimulated p-UGDH band ([4]; LNCaP cells, 10 nM DHT, GSK650394 40 μM): virtually eliminated | cell proliferation after serum and steroid depletion ([2]; GSK650394 40 μM, depleted 48 h, then serum and 10 nM DHT): significant impacts were observed | cell proliferation in replete medium ([2]; GSK650394 40 μM, replete medium, not shown): did not abrogate cell proliferation

EGF: growth factor used to stimulate activity of RSK2 and S6K1
stimulation of UGDH phosphorylation in whole cell lysates ([4]; serum starved LNCaP cells, EGF 20ng/mL or 10 nM DHT): Strong stimulation

CCc1cncnc1N1CCN(Cc2nc3ccc(C(F)(F)F)cc3[nH]2)CC1 [PF4708671]
EGF-stimulated p-UGDH band intensity ([4]; LNCaP cells): significantly reduced | cell number / proliferation, single kinase inhibitor [2]: reduced proliferation in all lines

C[C@]12CCC(=O)C[C@@H]1CC[C@@H]1[C@@H]2CC[C@]2(C)[C@@H](O)CC[C@@H]12 [DHT, 5α-Androstan-17β-ol-3-one]
stimulation of UGDH phosphorylation in whole cell lysates [4]: Strong stimulation
